Measured values from patent publication US9650363B2, “Integrin antagonist conjugates for targeted delivery to cells expressing LFA-1” (Hoffmann-La Roche Inc., priority 2012, dated 2017).

Biological target: sLFA-1/ICAM-1 (Homo sapiens, UniProt P05107+P20701, DEL701-769)
Test: sLFA-1/ICAM-1 ELISA (inhibition of 5dICAM-Fc binding to coated receptor)
Details: control compounds; ICAM-1 binding ELISA, sLFA-1 or Mac-1 coated plates
Procedure: • Small molecules equipped with a maleimide functionality were covalently conjugated to the RNA through a thioether linkage. To enable this chemistry, ˜60 mg of the RNA containing the 5′-disulfide linker was reduced in water (5 mL) to the corresponding thiol using 1 mL TCEP (0.5 M in water, obtained from Sigma Aldrich). Once analytical anion exchange HPLC indicated completion of the reaction (˜2 h at room temperature) the RNA was precipitated with 30 mL ethanol/3M NaOAc (pH 5.4) 32:1 (v/v) over night at −20° C. The pellet was collected by centrifugation and used for the subsequent small molecule conjugation. • In a typical conjugation reaction 10 mg RNA was dissolved in 2 mL sodium phosphate buffer (0.1 M, pH 7.0). To this solution the small molecule (0.12 mM) in ACN/NMP 1:1 (v/v) was added over a period of 5 minutes. […] The pellet was collected by centrifugation, dissolved in water and if necessary purified by anion exchange HPLC pursuing the procedure given above. If the conjugate is sufficiently pure the reaction mixture was filtered through a size exclusion column (Sephadex G-25, GE Healthcare). Annealing of Oligoribonucleotides to Generate siRNA • Complementary strands were annealed by combining equimolar RNA solutions. […] Absorbance was measured at 450 nm. […]

Sequence of sLFA-1/ICAM-1 (P20701 26-1090 limits assumed, stated change not applied): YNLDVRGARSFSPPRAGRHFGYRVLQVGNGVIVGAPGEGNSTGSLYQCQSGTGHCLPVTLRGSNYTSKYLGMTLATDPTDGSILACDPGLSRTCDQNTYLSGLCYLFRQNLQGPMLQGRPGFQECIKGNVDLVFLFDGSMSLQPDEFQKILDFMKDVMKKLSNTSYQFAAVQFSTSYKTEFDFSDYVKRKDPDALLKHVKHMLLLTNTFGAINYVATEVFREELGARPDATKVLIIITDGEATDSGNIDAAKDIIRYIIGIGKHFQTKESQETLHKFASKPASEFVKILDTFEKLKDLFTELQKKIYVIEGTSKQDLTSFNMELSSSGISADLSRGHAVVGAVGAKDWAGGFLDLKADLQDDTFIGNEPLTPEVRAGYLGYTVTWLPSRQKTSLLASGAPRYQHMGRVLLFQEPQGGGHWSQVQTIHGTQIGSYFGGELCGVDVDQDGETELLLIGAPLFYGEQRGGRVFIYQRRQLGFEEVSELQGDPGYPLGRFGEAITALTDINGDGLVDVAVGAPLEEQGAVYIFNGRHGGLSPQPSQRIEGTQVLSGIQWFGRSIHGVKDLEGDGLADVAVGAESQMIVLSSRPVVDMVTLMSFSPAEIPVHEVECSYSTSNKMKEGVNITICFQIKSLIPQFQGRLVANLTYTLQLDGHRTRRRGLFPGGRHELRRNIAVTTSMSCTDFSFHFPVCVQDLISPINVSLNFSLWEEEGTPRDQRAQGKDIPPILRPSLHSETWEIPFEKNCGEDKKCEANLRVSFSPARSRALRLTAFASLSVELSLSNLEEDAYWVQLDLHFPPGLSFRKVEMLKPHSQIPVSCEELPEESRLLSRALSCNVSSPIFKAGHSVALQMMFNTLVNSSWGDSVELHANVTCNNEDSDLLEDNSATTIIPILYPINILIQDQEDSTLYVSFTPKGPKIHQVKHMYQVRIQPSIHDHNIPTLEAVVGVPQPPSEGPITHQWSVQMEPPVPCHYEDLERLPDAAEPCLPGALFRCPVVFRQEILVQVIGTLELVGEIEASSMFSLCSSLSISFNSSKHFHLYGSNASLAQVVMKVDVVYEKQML
Sequence of sLFA-1/ICAM-1 (P05107 23-700 limits assumed, stated change not applied): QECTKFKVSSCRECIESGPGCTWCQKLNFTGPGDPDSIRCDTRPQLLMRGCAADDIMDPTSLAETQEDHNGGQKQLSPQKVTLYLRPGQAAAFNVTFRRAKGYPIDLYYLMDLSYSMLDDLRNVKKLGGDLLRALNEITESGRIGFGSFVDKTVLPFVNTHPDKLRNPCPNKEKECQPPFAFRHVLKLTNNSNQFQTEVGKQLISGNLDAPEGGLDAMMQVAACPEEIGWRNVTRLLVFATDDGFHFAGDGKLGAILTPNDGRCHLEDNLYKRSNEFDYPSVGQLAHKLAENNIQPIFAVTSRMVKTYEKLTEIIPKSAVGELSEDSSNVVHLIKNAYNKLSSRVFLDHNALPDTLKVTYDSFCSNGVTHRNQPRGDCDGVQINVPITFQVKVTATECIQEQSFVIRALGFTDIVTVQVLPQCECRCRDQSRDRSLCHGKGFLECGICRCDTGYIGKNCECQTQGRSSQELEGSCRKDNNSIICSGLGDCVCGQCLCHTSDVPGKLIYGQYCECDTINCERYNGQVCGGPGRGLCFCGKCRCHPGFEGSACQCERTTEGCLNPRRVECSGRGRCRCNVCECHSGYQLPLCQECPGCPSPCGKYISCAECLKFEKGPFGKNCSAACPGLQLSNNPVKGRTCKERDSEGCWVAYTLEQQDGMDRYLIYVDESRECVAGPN

Row | Structure (SMILES) | IC50 [nM]
1 | Cc1cc(C(=O)NCc2cccc(O)c2)cc(C)c1C(=O)N[C@@H](CNC(=O)c1cccs1)C(=O)O [compound 142] | ~37
2 | O=C(NCc1cccc(O)c1)c1cc(Cl)c(C(=O)N[C@@H](CNC(=O)c2cc(O)cc(O)c2)C(=O)O)c(Cl)c1 [compound 143] | ~11
